In article PMC10164177, “The difference in the cellular uptake of tocopherol and tocotrienol is influenced by their affinities to albumin” (Scientific Reports, 2023):

What was measured:
Jurkat cells = test system: Jurkat cells; parameters: method as in PMID 15753172; conditions: 1 μM α-Toc or α-T3, 24 hours; cited from earlier work
BSA = biological target: T1, BSA (Bos taurus, UniProt P02769); experiment: Fluorescence quenching binding parameters between vitamin E and BSA; parameters: species or system bovine; conditions: 2.0 μM BSA, room temperature, mean ± S.E. (n = 3); for Stern–Volmer constant (Ksv) / Kd: excitation 280 nm, emission 340 nm; for Kd: read-out: apparent binding constant (Ka) (converted)
T1 construct: Bovine serum albumin (BSA; Fatty Acid/IgG/Protease-Free); purchased FUJIFILM Wako Pure Chemical Corporation, Ltd. (Osaka, Japan)
Experimental: The binding parameters of each Toc or T3 analog to BSA were measured with slight modifications to a previously described procedure[32],[34]. Each Toc or T3 analog was dissolved in DMSO at 10 mM, and added to a quartz cell containing 3.0 mL of 2.0 μM BSA stock solution to achieve a final concentration of 1.0–225.0 μM. […] Fluorescence spectra were recorded at room temperature using FP-6200 (JASCO, Tokyo, Japan) at an excitation wavelength of 280 nm and emission wavelengths from 300 to 500 nm. The intensity at 340 nm was used to calculate the Stern–Volmer constant (Ksv) by the following equation[39]: F0/F = 1 + Ksv[VE]. We also calculated the apparent binding constant (Ka) and the number of binding sites (n) by the following equation[40]: log((F0 − F)/F) = nlogKa − nlog(1/([VE] − [BSA](F0 − F)/F0)). Abbreviations in the above equations refer to follows: F0, initial fluorescence intensity; F, fluorescence intensity in the presence of each Toc or T3 analog; [VE], molar concentration of each Toc or T3 analog; [BSA], original BSA concentration. The same measurements were performed using a buffer solution without BSA, and the F values were calculated using the measured fluorescence intensity as a blank.

THP-1 monocytes [1] = experiment: Cellular uptake in THP-1 monocytes at low temperature (4 °C); format: cell-based, human; conditions: 20.0 μM, 2 h; for effect of BSA addition on cellular uptake at low temperature: serum-depleted medium with 0–200.0 μM BSA
Experimental: THP-1 monocytes preincubated in 10% FBS/RPMI medium were collected. The collected cells (2.5 × 10^6) were suspended in 1.0 mL of 10% PBS/RPMI medium containing 0, 0.2, 2.0, 20.0, 32.4, and 200.0 μM BSA on ice. This suspension was immediately mixed with 4.0 mL of 10% PBS/RPMI medium containing BSA and vitamin E. The final composition was 5.0 mL of 10% PBS/RPMI medium containing 0, 0.2, 2.0, 20.0, 32.4, or 200.0 μM BSA, and 20.0 μM α-Toc or α-T3. Cells were incubated at 4 °C with slow rotation in a tube rotator. After 2 h incubation, the cell lysate was prepared as above, and vitamin E and protein levels were measured.
Vitamin E was extracted from the cell lysates according to the procedure described in our previous study. Tocol (Tama Biochemical, Tokyo, Japan) was used as an internal standard. The extract was analyzed by liquid chromatography-tandem mass spectrometry (LC–MS/MS). The LC–MS/MS system consisted of an ExionLC system and a 4000QTRAP mass spectrometer (SCIEX, Tokyo, Japan). An Inersil SIL-100A-5 column (4.6 mm × 250 mm; GL Science, Tokyo, Japan) was eluted with a mobile phase consisting of hexane/1,4-dioxane/2-propanol (100:4:0.5, v/v/v). The flow rate was 1.0 mL/min, and the column temperature was 40 °C. Vitamin E was detected in the multiple reaction monitoring (MRM) mode (Table 1) under atmospheric pressure chemical ionization. The ion source parameters were as follows: curtain gas, 45.0 psi; collision gas, 8.0 psi; nebulizer current, − 3.0 μA; temperature, 350.0 °C; ion source gas 1, 60.0 psi; interface heater, ON.

THP-1 monocytes [2] = experiment: Cellular uptake of vitamin E in THP-1 monocytes (37 °C, LC–MS/MS); format: cell-based, human; conditions: 20.0 μM analog, serum-depleted medium with 0–200.0 μM BSA, 2 h
Experimental: THP-1 monocytes (2.5 × 10^6 cells) were preincubated in 5.0 mL of 10% FBS/RPMI medium. The cells (2.5 × 10^6 cells) were also preincubated in 5.0 mL of FBS-free 10% PBS/RPMI medium in the absence or presence of 0.2, 2.0, 20.0, 32.4, and 200.0 μM BSA (each medium was prepared by dissolving the 2.0 mM BSA stock solution in 10% PBS/RPMI medium). After 24 h of these preincubations, 5.0 μL of each vitamin E stock solution was added to 10% FBS/RPMI medium or 10% PBS/RPMI medium at a final concentration of 20.0 μM and further incubated for 2 h. […] The incubated cells were collected by centrifugation and washed with PBS. The cells were resuspended in 0.6 mL water and homogenized on ice. A part of the lysate (0.5 mL) was used to analyze vitamin E (described below), and the remaining 0.1 mL was used to quantify protein by the BCA Protein Assay (Thermo Fisher Scientific).
Vitamin E was extracted from the cell lysates according to the procedure described in our previous study. Tocol (Tama Biochemical, Tokyo, Japan) was used as an internal standard. The extract was analyzed by liquid chromatography-tandem mass spectrometry (LC–MS/MS). The LC–MS/MS system consisted of an ExionLC system and a 4000QTRAP mass spectrometer (SCIEX, Tokyo, Japan). […] Vitamin E was detected in the multiple reaction monitoring (MRM) mode (Table 1) under atmospheric pressure chemical ionization. […]

LNCaP cells = test system: LNCaP cells; parameters: method as in PMID 21400505; conditions: 50 μM γ-Toc or 10 μM γ-T3, 6 hours; cited from earlier work
PC-3 cells = test system: PC-3 cells; parameters: method as in PMID 21400505; conditions: 50 μM γ-Toc or 10 μM γ-T3, 6 hours; cited from earlier work
THP-1 monocytes [3] = experiment: Cellular uptake in THP-1 monocytes with ATP synthesis inhibitors; format: cell-based, human; conditions: 10.0 μM vitamin E, 10.0 μM BSA, 1 mM DNP or 10 mM NaN3 + 5 mM 2DG, 1 h, 37 °C, vs control
Experimental: To further investigate cellular uptake mechanism, cell culture study was conducted using two ATP synthesis inhibitors as follows: (1) 1 mM 2,4-dinitrophenol or (2) a mixture of 10 mM sodium azide and 5 mM 2-deoxy-D-glucose[45]. THP-1 monocytes (2.5 × 10^6) preincubated in 10% FBS/RPMI medium were collected, suspended in 1.0 mL of PBS(+)[45] containing each inhibitor, and preincubated for 10 min at 37 °C under slow rotation in a tube rotator. […] Control samples were similarly prepared without the addition of inhibitors and incubated for 1 h. Vitamin E and protein levels were measured as described above.
Figure S1 The effect of two ATP synthesis inhibitors (1 mM 2,4-dinitrophenol (DNP) or a mixture of 10 mM sodium azide and 5 mM 2-deoxy-D-glucose (NaN3+2DG)) on the […]
Cells were incubated in PBS(+) […]
hour. Control samples were similarly incubated without the addition of inhibitors. […]
the main article. Values are expressed as mean ± SE of three independent experiments.
The statical significance of the results was analyzed using Dunnett's test, where p < 0.05 was considered statistically significant . […]
and samples treated with ATP synthesis inhibitor.
(1 picture or pasted object on this page, not shown here)

T1 sequence (P02769 25-607): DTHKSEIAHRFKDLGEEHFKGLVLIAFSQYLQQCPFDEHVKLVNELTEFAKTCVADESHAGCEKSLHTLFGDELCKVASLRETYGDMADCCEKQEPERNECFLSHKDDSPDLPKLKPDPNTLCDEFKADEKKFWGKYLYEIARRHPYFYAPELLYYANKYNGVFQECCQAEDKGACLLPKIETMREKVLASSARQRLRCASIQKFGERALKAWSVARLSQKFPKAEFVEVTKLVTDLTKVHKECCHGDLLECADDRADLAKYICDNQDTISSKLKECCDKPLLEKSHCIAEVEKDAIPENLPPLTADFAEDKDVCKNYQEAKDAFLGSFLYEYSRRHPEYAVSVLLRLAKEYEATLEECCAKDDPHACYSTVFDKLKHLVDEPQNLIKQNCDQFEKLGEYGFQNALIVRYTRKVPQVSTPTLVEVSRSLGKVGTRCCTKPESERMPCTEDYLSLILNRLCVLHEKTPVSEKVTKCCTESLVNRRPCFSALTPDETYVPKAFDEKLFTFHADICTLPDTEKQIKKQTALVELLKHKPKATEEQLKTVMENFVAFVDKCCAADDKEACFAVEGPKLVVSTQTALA

Compound	cellular uptake relative to α-Toc (Jurkat cells)	Stern–Volmer constant (Ksv) (BSA)	Kd (BSA)	number of binding site (n) (BSA)	cellular concentration compared with α-Toc at low temperature (THP-1 monocytes [1]; BSA-containing medium)	effect of BSA addition on cellular uptake at low temperature (THP-1 monocytes [1])	effect of BSA addition on cellular concentration (THP-1 monocytes [2])	cellular uptake compared with γ-Toc (LNCaP cells)	cellular uptake compared with γ-Toc (PC-3 cells)	effect of ATP synthesis inhibitors on cellular uptake (THP-1 monocytes [3])
CC(C)=CCC/C(C)=C/CC/C(C)=C/CC[C@]1(C)CCc2c(C)c(O)c(C)c(C)c2O1 [α-T3]	6.5 fold	1.19 ± 0.07 × 10^4 M^−1	69.4 µM	0.70 ± 0.04	slightly higher than that of α-Toc	did not observe the BSA-induced increase				
Cc1c(C)c2c(c(C)c1O)CC[C@@](C)(CCC[C@H](C)CCC[C@H](C)CCCC(C)C)O2 [α-Toc]		0.93 ± 0.06 × 10^4 M^−1	99 µM	0.69 ± 0.02		reduced upon the addition of BSA	particularly pronounced			
CC(C)=CCC/C(C)=C/CC/C(C)=C/CC[C@]1(C)CCc2c(C)c(O)cc(C)c2O1 [β-T3]		1.39 ± 0.13 × 10^4 M^−1	59.5 µM	0.76 ± 0.00						
Cc1cc(O)c(C)c2c1O[C@](C)(CCC[C@H](C)CCC[C@H](C)CCCC(C)C)CC2 [β-Toc]		1.00 ± 0.02 × 10^4 M^−1	95.2 µM	0.69 ± 0.01						
CC(C)=CCC/C(C)=C/CC/C(C)=C/CC[C@]1(C)CCc2cc(O)c(C)c(C)c2O1 [γ-T3]		1.35 ± 0.01 × 10^4 M^−1	62.1 µM	0.74 ± 0.02				higher cellular uptake than γ-Toc	higher cellular uptake than γ-Toc	
Cc1c(O)cc2c(c1C)O[C@](C)(CCC[C@H](C)CCC[C@H](C)CCCC(C)C)CC2 [γ-Toc]		0.82 ± 0.01 × 10^4 M^−1	115 µM	0.71 ± 0.02						
CC(C)=CCC/C(C)=C/CC/C(C)=C/CC[C@]1(C)CCc2cc(O)cc(C)c2O1 [δ-T3]		1.51 ± 0.02 × 10^4 M^−1	55.2 µM	0.78 ± 0.01			increase the most			No significance
Cc1cc(O)cc2c1O[C@](C)(CCC[C@H](C)CCC[C@H](C)CCCC(C)C)CC2 [δ-Toc]		0.89 ± 0.04 × 10^4 M^−1	105 µM	0.71 ± 0.01						No significance
